Measurements from patent publication US20240425490A1, “SULFAMIDE RIBONUCLEOTIDE REDUCTASE (RNR) INHIBITORS AND USES THEREOF” (Boundless Bio, Inc., priority 2021, published 2024).

Target: T1, RNR (RNR1:RNR2 1:1) (Homo sapiens, UniProt P23921)
T1 sequence (P23921 1-792): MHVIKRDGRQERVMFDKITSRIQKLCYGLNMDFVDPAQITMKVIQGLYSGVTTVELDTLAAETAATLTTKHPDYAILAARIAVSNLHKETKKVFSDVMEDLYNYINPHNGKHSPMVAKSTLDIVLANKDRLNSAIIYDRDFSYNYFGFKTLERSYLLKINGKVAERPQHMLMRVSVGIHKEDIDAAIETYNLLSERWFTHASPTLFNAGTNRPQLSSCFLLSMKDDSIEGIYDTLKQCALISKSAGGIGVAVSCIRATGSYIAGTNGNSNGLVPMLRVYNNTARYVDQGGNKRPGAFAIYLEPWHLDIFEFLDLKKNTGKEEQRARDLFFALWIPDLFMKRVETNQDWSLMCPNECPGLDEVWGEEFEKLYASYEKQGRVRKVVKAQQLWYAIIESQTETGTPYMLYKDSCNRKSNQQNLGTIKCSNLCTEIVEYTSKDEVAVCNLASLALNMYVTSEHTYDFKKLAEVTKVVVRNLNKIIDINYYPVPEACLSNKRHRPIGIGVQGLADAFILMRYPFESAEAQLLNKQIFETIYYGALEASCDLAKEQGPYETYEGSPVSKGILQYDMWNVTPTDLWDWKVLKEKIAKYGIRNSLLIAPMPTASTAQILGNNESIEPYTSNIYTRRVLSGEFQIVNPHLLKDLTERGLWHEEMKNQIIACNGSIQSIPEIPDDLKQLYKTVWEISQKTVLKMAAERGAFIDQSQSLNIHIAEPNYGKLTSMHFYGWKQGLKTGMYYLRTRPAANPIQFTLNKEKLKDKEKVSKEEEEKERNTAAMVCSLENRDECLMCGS
Assay: RNR enzyme activity, rapid-fire mass spectrometry (RFMS) assay
Format: biochemical
Conditions: RNR 50 nM, CDP 5 μM, ATP 1 mM, 37° C., 45 min, compounds screened up to 50 μM, read-out: RF/MS IC50
Procedure, shortened: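 Human RNR1:RNR2 (1:1, 50 nM) pre-incubated 15 min at room temperature with compound, then reacted with 5 μM CDP and 1 mM ATP, no NADPH, for 45 min at 37 °C. Stopped with 6% HCOOH; turnover read by rapid-fire mass spectrometry; Triapine and hydroxyurea as reference compounds.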

IC50 | Structure (SMILES)
1 to 10 µM | Cc1ccc(F)c([C@H](C)[C@H](NS(=O)(=O)N2CCC(C)(C)CC2)c2n[nH]c(=O)o2)c1C [Example 114, N-((1S,2S)-2-(6-fluoro-2,3-dimethylphenyl)-1-(5-oxo-4,5-dihydro-1,3,4-oxadiazol-2-yl)propyl)-4,4-dimethylpiperidine-1-sulfonamide]
10 to 100 µM | Cc1ccc(F)c([C@H](C)[C@H](NS(=O)(=O)N2CCC3(CCCN(C)C3)CC2)c2n[nH]c(=O)o2)c1C [Example 84, N-((1S,2S)-2-(6-fluoro-2,3-dimethylphenyl)-1-(5-oxo-4,5-dihydro-1,3,4-oxadiazol-2-yl)propyl)-2-methyl-2,9-diazaspiro[5.5]undecane-9-sulfonamide]
10 to 100 µM | CC(=O)[C@@H]1CCCCN1S(=O)(=O)N[C@H](c1n[nH]c(=O)o1)[C@H](C)c1c(F)ccc(C)c1C [Example 17, (S)-2-acetyl-N-((1S,2R)-2-(6-fluoro-2,3-dimethylphenyl)-1-(5-oxo-4,5-dihydro-1,3,4-oxadiazol-2-yl)propyl)piperidine-1-sulfonamide]
10 to 100 µM | Cc1ccc(F)c([C@H](C)[C@H](NS(=O)(=O)N2CCC3(CC2)CC(=O)N(C)C3)c2n[nH]c(=O)o2)c1C [Example 77, N-((1S,2S)-2-(6-fluoro-2,3-dimethylphenyl)-1-(5-oxo-4,5-dihydro-1,3,4-oxadiazol-2-yl)propyl)-2-methyl-3-oxo-2,8-diazaspiro[4.5]decane-8-sulfonamide]
1 to 10 µM | CC(=O)N(C)C1CCN(S(=O)(=O)N[C@H](c2n[nH]c(=O)o2)C(C)c2c(F)ccc(C)c2C)CC1 (stereo partly drawn) [Example 63, N-(1-(N-((1S)-2-(6-fluoro-2,3-dimethylphenyl)-1-(5-oxo-4,5-dihydro-1,3,4-oxadiazol-2-yl)propyl)sulfamoyl)piperidin-4-yl)-N-methylacetamide]
1 to 10 µM | CCN(CC1CC1)S(=O)(=O)N[C@H](c1n[nH]c(=O)o1)[C@H](C)c1c(F)ccc(C)c1C [Example 118]
0.1 to 1 µM | Cc1ccc(F)c([C@@H](C)[C@H](NS(=O)(=O)N2CCC(C(C)(C)C)CC2)c2n[nH]c(=O)o2)c1C [Example 131, 4-(tert-butyl)-N-((1S,2R)-2-(6-fluoro-2,3-dimethylphenyl)-1-(5-oxo-4,5-dihydro-1,3,4-oxadiazol-2-yl)propyl)piperidine-1-sulfonamide]
1 to 10 µM | Cc1ccc(F)c([C@H](C)[C@H](NS(=O)(=O)N2CCc3ccccc3C2)c2n[nH]c(=O)o2)c1C [Example 136, N-((1S,2S)-2-(6-fluoro-2,3-dimethylphenyl)-1-(5-oxo-4,5-dihydro-1,3,4-oxadiazol-2-yl)propyl)-3,4-dihydroisoquinoline-2(1H)-sulfonamide]
0.1 to 1 µM | Cc1ccc(F)c([C@@H](C)[C@H](NS(=O)(=O)N2CC3C(C2)C3(C)C)c2n[nH]c(=O)o2)c1C (stereo partly drawn) [Example 102, N-((1S,2R)-2-(6-fluoro-2,3-dimethylphenyl)-1-(5-oxo-4,5-dihydro-1,3,4-oxadiazol-2-yl)propyl)-6,6-dimethyl-3-azabicyclo[3.1.0]hexane-3-sulfonamide]
10 to 100 µM | Cc1ccc(F)c(C(C)[C@H](NS(=O)(=O)N2CCC(CN3CCCCC3)CC2)c2n[nH]c(=O)o2)c1C (stereo partly drawn) [Example 62, N-((1S)-2-(6-fluoro-2,3-dimethylphenyl)-1-(5-oxo-4,5-dihydro-1,3,4-oxadiazol-2-yl)propyl)-4-(piperidin-1-ylmethyl)piperidine-1-sulfonamide]
0.1 to 1 µM | Cc1ccc(F)c([C@@H](C)[C@H](NS(=O)(=O)N2CCc3ccc(Cl)c(Cl)c3C2)c2n[nH]c(=O)o2)c1C [Example 108, 7,8-dichloro-N-((1S,2R)-2-(6-fluoro-2,3-dimethylphenyl)-1-(5-oxo-4,5-dihydro-1,3,4-oxadiazol-2-yl)propyl)-3,4-dihydroisoquinoline-2(1H)-sulfonamide]
10 to 100 µM | Cc1ccc(F)c([C@H](C)[C@H](NS(=O)(=O)N2CC3CCCC(C3)C2)c2n[nH]c(=O)o2)c1C [Example 42, N-((1S,2S)-2-(6-fluoro-2,3-dimethylphenyl)-1-(5-oxo-4,5-dihydro-1,3,4-oxadiazol-2-yl)propyl)-3-azabicyclo[3.3.1]nonane-3-sulfonamide]
1 to 10 µM | Cc1ccc(F)c(C(C)[C@H](NS(=O)(=O)N2CCC(OC(F)(F)F)CC2)c2n[nH]c(=O)o2)c1C (stereo partly drawn) [Example 46, N-((1S)-2-(6-fluoro-2,3-dimethylphenyl)-1-(5-oxo-4,5-dihydro-1,3,4-oxadiazol-2-yl)propyl)-4-(trifluoromethoxy)piperidine-1-sulfonamide]
10 to 100 µM | Cc1ccc(F)c([C@@H](C)[C@H](NS(=O)(=O)N2CCC3(CC2)OCCO3)c2n[nH]c(=O)o2)c1C [Example 133, N-((1S,2R)-2-(6-fluoro-2,3-dimethylphenyl)-1-(5-oxo-4,5-dihydro-1,3,4-oxadiazol-2-yl)propyl)-1,4-dioxa-8-azaspiro[4.5]decane-8-sulfonamide]
0.1 to 1 µM | COC1CCN(S(=O)(=O)N[C@H](c2n[nH]c(=O)o2)[C@H](C)c2c(F)ccc(C)c2C)CC1 [Example 125, N-((1S,2R)-2-(6-fluoro-2,3-dimethylphenyl)-1-(5-oxo-4,5-dihydro-1,3,4-oxadiazol-2-yl)propyl)-4-methoxypiperidine-1-sulfonamide]
0.1 to 1 µM | Cc1ccc(F)c(C(C)[C@H](NS(=O)(=O)N2CCC(O)(C(F)(F)F)CC2)c2n[nH]c(=O)o2)c1C (stereo partly drawn) [Example 89, N-((1S)-2-(6-fluoro-2,3-dimethylphenyl)-1-(5-oxo-4,5-dihydro-1,3,4-oxadiazol-2-yl)propyl)-4-hydroxy-4-(trifluoromethyl)piperidine-1-sulfonamide]
10 to 100 µM | Cc1ccc(F)c([C@H](C)[C@H](NS(=O)(=O)N2CCC(c3c[nH]c4ccccc34)CC2)c2n[nH]c(=O)o2)c1C [Example 69, N-((1S,2S)-2-(6-fluoro-2,3-dimethylphenyl)-1-(5-oxo-4,5-dihydro-1,3,4-oxadiazol-2-yl)propyl)-4-(1H-indol-3-yl)piperidine-1-sulfonamide]
0.1 to 1 µM | Cc1ccc(F)c([C@@H](C)[C@H](NS(=O)(=O)N2CCC(C)(C#N)CC2)c2n[nH]c(=O)o2)c1C [Example 81, 4-cyano-N-((1S,2R)-2-(6-fluoro-2,3-dimethylphenyl)-1-(5-oxo-4,5-dihydro-1,3,4-oxadiazol-2-yl)propyl)-4-methylpiperidine-1-sulfonamide]
10 to 100 µM | Cc1ccc(F)c([C@@H](C)[C@H](NS(=O)(=O)N2CCC[C@@](C)(O)C2)c2n[nH]c(=O)o2)c1C [Example 22, (R)-N-((1S,2R)-2-(6-fluoro-2,3-dimethylphenyl)-1-(5-oxo-4,5-dihydro-1,3,4-oxadiazol-2-yl)propyl)-3-hydroxy-3-methylpiperidine-1-sulfonamide]
1 to 10 µM | Cc1ccc(F)c([C@H](C)[C@H](NS(=O)(=O)N2CCC3(CCCC3)CC2)c2n[nH]c(=O)o2)c1C [Example 72, N-((1S,2S)-2-(6-fluoro-2,3-dimethylphenyl)-1-(5-oxo-4,5-dihydro-1,3,4-oxadiazol-2-yl)propyl)-8-azaspiro[4.5]decane-8-sulfonamide]
0.1 to 1 µM | Cc1ccc(F)c(C(C)[C@H](NS(=O)(=O)N2CCN(C)CC2)c2n[nH]c(=O)o2)c1C (stereo partly drawn) [Example 139, N-((1S)-2-(6-fluoro-2,3-dimethylphenyl)-1-(5-oxo-4,5-dihydro-1,3,4-oxadiazol-2-yl)propyl)-4-methylpiperazine-1-sulfonamide]
10 to 100 µM | Cc1ccc(F)c([C@@H](C)[C@H](NS(=O)(=O)N2CCC(c3nncn3C)CC2)c2n[nH]c(=O)o2)c1C [Example 52, N-((1S,2R)-2-(6-fluoro-2,3-dimethylphenyl)-1-(5-oxo-4,5-dihydro-1,3,4-oxadiazol-2-yl)propyl)-4-(4-methyl-4H-1,2,4-triazol-3-yl)piperidine-1-sulfonamide]
1 to 10 µM | Cc1ccc(F)c(C(C)[C@H](NS(=O)(=O)N2CCC(n3cccn3)CC2)c2n[nH]c(=O)o2)c1C (stereo partly drawn) [Example 96, N-((1S)-2-(6-fluoro-2,3-dimethylphenyl)-1-(5-oxo-4,5-dihydro-1,3,4-oxadiazol-2-yl)propyl)-4-(1H-pyrazol-1-yl)piperidine-1-sulfonamide]
1 to 10 µM | Cc1ccc(F)c([C@@H](C)[C@H](NS(=O)(=O)N2CCC[C@](C)(O)C2)c2n[nH]c(=O)o2)c1C [Example 20, (S)-N-((1S,2R)-2-(6-fluoro-2,3-dimethylphenyl)-1-(5-oxo-4,5-dihydro-1,3,4-oxadiazol-2-yl)propyl)-3-hydroxy-3-methylpiperidine-1-sulfonamide]
0.1 to 1 µM | Cc1ccc(F)c([C@@H](C)[C@H](NS(=O)(=O)N2CCC(C)(C)CC2)c2n[nH]c(=O)o2)c1C [Example 113, N-((1S,2R)-2-(6-fluoro-2,3-dimethylphenyl)-1-(5-oxo-4,5-dihydro-1,3,4-oxadiazol-2-yl)propyl)-4,4-dimethyl piperidine-1-sulfonamide]
